Experimental data published in patent publication US20240252488A1 (KOREA RESEARCH INSTITUTE OF CHEMICAL TECHNOLOGY, priority 2020, published 2024).

Assays:
MLKL [1] = target: T1, MLKL (Homo sapiens, UniProt Q8NB16); assay: MLKL degradation assay in HepG2 cell line (western blot); assay type: cell-based; set-up: endogenous in cells; host or cells: HepG2 or HaCaT; conditions: cell line not given; for Degradation assay (Degradation %) 1 μM: compound 1 μM; for Degradation assay (Degradation %) 10 μM: compound 10 μM
T1 sequence (Q8NB16 1-471): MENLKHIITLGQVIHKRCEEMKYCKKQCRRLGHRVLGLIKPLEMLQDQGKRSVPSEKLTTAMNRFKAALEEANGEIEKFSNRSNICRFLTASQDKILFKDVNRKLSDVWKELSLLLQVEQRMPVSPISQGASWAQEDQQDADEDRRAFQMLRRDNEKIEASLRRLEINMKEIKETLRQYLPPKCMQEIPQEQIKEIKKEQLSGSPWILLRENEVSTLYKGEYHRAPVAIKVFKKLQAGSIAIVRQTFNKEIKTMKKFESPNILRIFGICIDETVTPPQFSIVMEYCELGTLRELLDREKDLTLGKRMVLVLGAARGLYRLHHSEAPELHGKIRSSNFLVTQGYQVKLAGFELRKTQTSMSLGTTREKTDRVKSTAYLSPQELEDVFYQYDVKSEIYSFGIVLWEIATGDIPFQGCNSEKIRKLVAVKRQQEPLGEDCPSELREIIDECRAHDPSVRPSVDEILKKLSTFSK
Method in brief: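 Chemiluminescent western blot signal reports remaining MLKL protein in HepG2 cells after 20-24 h treatment with compound at a final 1 or 10 μM. Equal protein (10-15 μg, BCA) is loaded per lane.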

MLKL [2] = target: T1, MLKL; assay: Measurement of binding affinity with MLKL receptor (competitive binding assay, Kd); set-up: made in house; host or cells: HEK 293 cell line (T7 phage in E. coli BL21-derived host is also described)
Method in brief: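 MLKL was produced in HEK 293 cells and tagged with DNA for detection. Liganded beads were blocked with excess biotin and washed to cut non-specific binding, then compounds (111× DMSO stocks, 0.9% DMSO in assay) competed for binding. Eluate kinase was measured by qPCR for Kd.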

FADD−/− Jurkat cells = assay: Necroptosis inhibition assay, TNF-α-induced necroptosis (CellTiter-Glo 2.0); assay type: cell-based, human; conditions: TNF-α 15 ng/mL; for Necroptosis inhibition assay (Rescue %) 1 μM: compound 1 μM; for Necroptosis inhibition assay (Rescue %) 10 μM: compound 10 μM
Method in brief: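 Compound is added to cells at final concentrations of 0.1, 1 and 10 μM and left 30 minutes at room temperature. Necroptosis is induced with 15 ng/mL TNF-α, culture continues 20 to 24 hours at 37° C, and ATP-based luminescence reports viability.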

SMILES	Degradation assay (Degradation %) 1 μM (MLKL [1]) [%]	Degradation assay (Degradation %) 10 μM (MLKL [1]) [%]	Kd (MLKL [2]) [nM]	Necroptosis inhibition assay (Rescue %) 1 μM (FADD−/− Jurkat cells) [%]	Necroptosis inhibition assay (Rescue %) 10 μM (FADD−/− Jurkat cells) [%]
Nc1ncc(-c2cnn(C3CCN(CCCCCCNC(=O)COc4cccc5c4C(=O)N(C4CCC(=O)NC4=O)C5=O)CC3)c2)nc1C(=O)O[C@@H](C(=O)Nc1ccc(F)cc1)c1ccccc1 (stereo partly drawn) [TDH-133, (R)-2-((4-fluorophenyl)amino)-2-oxo-1-phenylethyl 3-amino-6-(1-(1-(6-(2-((2-(2,6-dioxopiperidin-3-yl)-1,3-dioxoisoindolin-4-yl)oxy)acetamido)hexyl)piperidin-4-yl)-1H-pyrazol-4-yl)pyrazine-2-carboxylate]	53.05	40.54	0.78	91.87	68.81
Nc1ncc(-c2cnn(C3CCN(CCOCCOCCOCCNC(=O)COc4cccc5c4C(=O)N(C4CCC(=O)NC4=O)C5=O)CC3)c2)nc1C(=O)O[C@@H](C(=O)Nc1ccc(F)cc1)c1ccccc1 (stereo partly drawn) [TDH-155, (R)-2-((4-fluorophenyl)amino)-2-oxo-1-phenylethyl 3-amino-6-(1-(1-(1-((2-(2,6-dioxopiperidin-3-yl)-1,3-dioxoisoindolin-4-yl)oxy)-2-oxo-6,9,12-trioxa-3-azatetradecan-14-yl)piperidin-4-yl)-1H-pyrazol-4-yl)pyrazine-2-carboxylate]	31.35	63.85	9.5	31.1	64.6
Nc1ncc(-c2cnn(C3CCN(C(=O)COCCOCCNC(=O)C4CCN(c5cccc6c5C(=O)N(C5CCC(=O)NC5=O)C6=O)CC4)CC3)c2)nc1C(=O)O[C@@H](C(=O)Nc1ccc(F)cc1)c1ccccc1 (stereo partly drawn) [TDH-194, (R)-2-((4-fluorophenyl)amino)-2-oxo-1-phenylethyl 3-amino-6-(1-(1-(2-(2-(2-(1-(2-(2,6-dioxopiperidin-3-yl)-1,3-dioxoisoindolin-4-yl)piperidine-4-carboxamido)ethoxy)ethoxy)acetyl)piperidin-4-yl)-1H-pyrazol-4-yl)pyrazine-2-carboxylate]	33.12	18.24	6.7	67.94	58.3
Nc1ncc(-c2cnn(C3CCN(CC4CCN(C(=O)COc5ccc6c(c5)C(=O)N(C5CCC(=O)NC5=O)C6=O)CC4)CC3)c2)nc1C(=O)O[C@@H](C(=O)Nc1ccc(F)cc1)c1ccccc1 (stereo partly drawn) [TDH-171, (R)-2-((4-fluorophenyl)amino)-2-oxo-1-phenylethyl 3-amino-6-(1-(1-((1-(2-((2-(2,6-dioxopiperidin-3-yl)-1,3-dioxoisoindolin-5-yl)oxy)acetyl)piperidin-4-yl)methyl)piperidin-4-yl)-1H-pyrazol-4-yl)pyrazine-2-carboxylate]	64.64	64.5	2.3	93.81	65.91
Nc1ncc(-c2cnn(C3CCN(C(=O)C4CCN(C(=O)CNc5ccc6c(c5)C(=O)N(C5CCC(=O)NC5=O)C6=O)CC4)CC3)c2)nc1C(=O)OC(C(=O)Nc1ccc(F)cc1)c1ccccc1 (stereo not shown) [TDH-276, 2-((4-fluorophenyl)amino)-2-oxo-1-phenylethyl 3-amino-6-(1-(1-(1-((2-(2,6-dioxopiperidin-3-yl)-1,3-dioxoisoindolin-5-yl)glycyl)piperidine-4-carbonyl)piperidin-4-yl)-1H-pyrazol-4-yl)pyrazine-2-carboxylate]	78.62	75.61	3.6	75.36	70.49
